{"source": "ChEMBL document CHEMBL2073920", "about": "(Eur J Pharmacol, 1998)", "key": {"[1]": {"molecular_target": "T1, ATP-dependent translocase ABCB1 (Homo sapiens, UniProt P08183)", "T1 sequence (P08183 whole entry)": "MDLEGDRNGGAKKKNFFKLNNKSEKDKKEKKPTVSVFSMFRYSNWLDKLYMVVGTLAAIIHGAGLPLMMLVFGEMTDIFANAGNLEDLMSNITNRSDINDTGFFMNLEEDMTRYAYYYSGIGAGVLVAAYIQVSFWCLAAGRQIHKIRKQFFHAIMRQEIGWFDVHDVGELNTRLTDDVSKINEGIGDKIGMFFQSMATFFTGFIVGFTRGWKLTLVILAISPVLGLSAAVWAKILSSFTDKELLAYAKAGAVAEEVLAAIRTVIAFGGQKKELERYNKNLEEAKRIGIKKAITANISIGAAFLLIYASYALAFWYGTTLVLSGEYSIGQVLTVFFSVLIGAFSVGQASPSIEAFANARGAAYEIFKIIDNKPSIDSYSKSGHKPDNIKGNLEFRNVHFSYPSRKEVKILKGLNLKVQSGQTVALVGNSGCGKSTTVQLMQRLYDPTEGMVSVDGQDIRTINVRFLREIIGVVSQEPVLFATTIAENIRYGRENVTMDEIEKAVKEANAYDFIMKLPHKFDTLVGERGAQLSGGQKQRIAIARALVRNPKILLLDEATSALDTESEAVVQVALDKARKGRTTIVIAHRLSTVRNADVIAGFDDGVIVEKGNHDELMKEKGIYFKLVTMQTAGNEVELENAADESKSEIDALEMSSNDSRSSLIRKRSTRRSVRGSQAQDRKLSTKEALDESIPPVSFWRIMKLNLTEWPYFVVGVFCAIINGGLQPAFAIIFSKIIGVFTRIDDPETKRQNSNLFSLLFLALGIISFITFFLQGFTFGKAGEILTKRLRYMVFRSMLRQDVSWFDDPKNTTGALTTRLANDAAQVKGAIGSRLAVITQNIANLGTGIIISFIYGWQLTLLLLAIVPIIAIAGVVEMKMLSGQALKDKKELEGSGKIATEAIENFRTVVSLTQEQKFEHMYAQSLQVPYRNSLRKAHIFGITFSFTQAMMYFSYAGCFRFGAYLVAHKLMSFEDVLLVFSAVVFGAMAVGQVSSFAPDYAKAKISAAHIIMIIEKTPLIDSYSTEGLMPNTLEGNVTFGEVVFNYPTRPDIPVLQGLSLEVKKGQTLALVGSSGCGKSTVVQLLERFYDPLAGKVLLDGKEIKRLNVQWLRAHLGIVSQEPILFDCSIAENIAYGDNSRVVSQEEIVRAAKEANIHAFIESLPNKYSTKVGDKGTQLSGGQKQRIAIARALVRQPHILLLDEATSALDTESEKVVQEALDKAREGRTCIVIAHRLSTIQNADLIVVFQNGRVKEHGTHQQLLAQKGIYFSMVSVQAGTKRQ", "assay": "TP_TRANSPORTER: inhibition of Rhodamine 123 transepithelial transport (basal to apical)(R123: 5 uM, Midazolam: 100 uM) in Caco-2 cells", "assay_type": "functional, cell-based", "settings": "caco-2, 100 µM"}, "[2]": {"molecular_target": "T1, ATP-dependent translocase ABCB1", "assay": "TP_TRANSPORTER: transepithelial transport (basal to apical) in Caco-2 cells", "assay_type": "functional, cell-based"}}, "data": [{"smiles": "Cc1ncc2n1-c1ccc(Cl)cc1C(c1ccccc1F)=NC2", "note": "[MIDAZOLAM]", "values": [{"measurement": "Activity", "setting": "[1]", "result": "inhibitor [(at a rough estimate) 55 % of control]"}, {"measurement": "Activity", "setting": "[2]", "result": "substrate [+]"}]}]}
